Assay results as given in ChEMBL document CHEMBL1146733, “Effect of gabapentin derivates on mechanical allodynia-like behaviour in a rat model of chronic sciatic constriction injury” (2004).

Assays:
Rattus norvegicus [1] = experiment: Antiallodynic effect investigated in chronic sciatic nerve constriction injury rats after 1 hr of 60 mg/kg i.p. administration and value reported as paw withdrawal threshold; assay type: functional; conditions: route intraperitoneal
Rattus norvegicus [2] = experiment: Antiallodynic effect investigated in chronic sciatic nerve constriction injury rats before 1 hr of 60 mg/kg i.p. administration and value reported as paw withdrawal threshold; assay type: functional; conditions: route intraperitoneal

Row | SMILES | PWT (Rattus norvegicus [1]) [g] | PWT (Rattus norvegicus [2]) [g] | PWT (Rattus norvegicus [2]; 60 mg/kg) [g] | PWT (Rattus norvegicus [1]; 60 mg/kg) [g]
1 | CC(C)C[C@@H](CN)CC(=O)OC(C)CCOC(=O)CC1(CN)CCCCC1.Cl.Cl (some centres not stated) | 11.4 | 4 | – | –
2 | CC(C)C[C@@H](CN)CC(=O)OCCOC(=O)CC1(CN)CCCCC1.Cl.Cl | 19 | 3.33 | – | –
3 | Cl.Cl.NCC1(CC(=O)OCCCCOC(=O)CC2(CN)CCCCC2)CCCCC1 | 5.6 | 4 | – | –
4 | Cl.Cl.NCC1(CC(=O)OCCCOC(=O)CC2(CN)CCCCC2)CCCCC1 | 19.4 | 4.8 | – | –
5 | CC(C)C[C@@H](CN)CC(=O)OCCCOC(=O)CC1(CN)CCCCC1.Cl.Cl | 7.8 | 3.6 | – | –
6 | CC(C)C[C@H](CN)CC(=O)OCCCCOC(=O)C[C@H](CN)CC(C)C.Cl.Cl | 8.5 | 4.5 | – | –
7 | CC(C)C[C@@H](CN)CC(=O)OCCCCOC(=O)CC1(CN)CCCCC1.Cl.Cl | 8.56 | 4.17 | – | –
8 | COC(=O)CC1(CN)CCCCC1.Cl | 22.8 | 6.4 | – | –
9 | CC(C)C[C@H](CN)CC(=O)OCCCOC(=O)C[C@H](CN)CC(C)C.Cl.Cl | 10.33 | 6 | – | –
10 | CC(C)C[C@@H](CN)CC(=O)OCC(C)(C)COC(=O)CC1(CN)CCCCC1.Cl.Cl | 7.2 | 4.4 | – | –
11 | CC(C)C[C@H](CN)CC(=O)OCCOC(=O)C[C@H](CN)CC(C)C.Cl.Cl | 7.9 | 2.9 | – | –
12 | COC(=O)C[C@@H](CN)CC(C)C.Cl | 6.8 | 5.2 | – | –
13 | Cl.Cl.NCC1(CC(=O)OCCOC(=O)CC2(CN)CCCCC2)CCCCC1 | 18.67 | 3.4 | – | –
14 | COc1ccc(C(CN(C)C)C2(OC(=O)CCC(=O)NC34CC5CC(C)(CC(C)(C5)C3)C4)CCCCC2)cc1.Cl.Cl (configuration not stated) | 5.6 | 3.36 | – | –
15 | CC(C)C[C@H](CNC(=O)CCC(=O)NC12CC3CC(C)(CC(C)(C3)C1)C2)CC(=O)O | 13.2 | 3.32 | – | –
16 | CC(C)C[C@H](CNC(=O)CCC(=O)NC[C@@H](CC(=O)O)CC(C)C)CC(=O)O | 6 | 4 | – | –
17 | CCC(COC(=O)CC1(CN)CCCCC1)OC(=O)C[C@H](CN)CC(C)C.Cl.Cl (stereo in doubt; 2003325) | 6.8 | – | 4 | –
18 | CC(C)C[C@@H](CN)CC(=O)OCCCCCOC(=O)CC1(CN)CCCCC1.Cl.Cl (stereo in doubt; 2003327) | – | – | 3.33 | 20.67
19 | CCC(COC(=O)CC1(CN)CCCCC1)OC(=O)C[C@H](CN)CC(C)C.Cl.Cl (stereo in doubt; 2003415) | – | – | 4.4 | –
20 | CC(C)C[C@@H](CN)CC(=O)OCCCCCOC(=O)CC1(CN)CCCCC1.Cl.Cl (stereo in doubt; 20030417) | – | – | 2.8 | 13.8
21 | NCC1(CC(=O)O)CCCCC1 [GABAPENTIN] | 13.5 | 2.23 | – | –
22 | CC12CC3CC(C)(C1)CC(N)(C3)C2.Cl [MEMANTINE HYDROCHLORIDE] | 10.4 | 2.8 | – | –
23 | CC(C)C[C@H](CN)CC(=O)O [PREGABALIN] | 18.86 | 3.43 | – | –
24 | COc1ccc(C(CN(C)C)C2(O)CCCCC2)cc1 (configuration not stated) [VENLAFAXINE] | 22 | 2 | – | –
